Reference: patent US20110158980A1, “METHODS TO TREAT AND SCREEN FOR AGENTS TO TREAT OBESITY” (TRUSTEES OF TUFTS COLLEGE, priority 2008, published 2011)

System: 3T3-L1 adipocytes
Assay: Metabolic flux analysis (stoichiometric model) of adipocyte intermediary metabolism
Format: cell-based
Experimental: 3T3-L1 preadipocytes were plated onto 24-well plates and expanded in preadipocyte growth medium consisting of DMEM supplemented with calf serum (10% v/v), penicillin and streptomycin. Medium was replenished every other day. Two days post-confluence, the cells were induced to differentiate using an adipogenic cocktail (1 μg/ml insulin, 0.5 mM isobutylmethylxanthine, and 1 μM dexamethasone) added to a basal medium (DMEM with 10% fetal bovine serum and penicillin/streptomycin). After 48 hrs, the first medium was replaced with a second induction medium consisting of the basal adipocyte medium supplemented with only insulin. […] This basal medium was replenished every other day during the remainder of the culture experiments.
A stoichiometric model of adipocyte central carbon metabolism was constructed as described previously (Si Y, Yoon J, Lee K. American journal of physiology 2007; 292:E1637-46). The model consisted of the major pathways of central carbon metabolism (Table 1). Intracellular fluxes were estimated by solving a constrained non-linear optimization problem with stoichiometric and thermodynamic constraints (Nolan R P, Fenley A P, Lee K. Metab Eng 2006; 8:30-45).

## O=C(O)Cc1ccccc1 [phenylacetate]
5 mM PA
  Increase of lipolysis: 1.2 fold
5 mM phenylacetate
  Decrease of citrate transport out of the mitochondria: 40%
  Decrease of pyruvate carboxylase flux: 23%
10 mM PA
  Increase of lipolysis: 1.4 fold
10 mM phenylacetate
  Calculated CO2 output lower: 23%
  Decrease of PDC flux: 27%
  Decrease of citrate transport out of the mitochondria: 46%
  Decrease of pyruvate carboxylase flux: 33%
PA 5 mM, day 12 post-induction
  Flux RXN 1 Glycolysis: Glucose + ATP = Glucose 6-P + ADP: 367.0 ± 17.6 mmol/g-DNA/2 days
  Flux RXN 2 Glycolysis: Glucose 6-P = Fructose 6-P: 359.9 ± 23.3 mmol/g-DNA/2 days
  Flux RXN 3 Glycolysis: Fructose 6-P + ATP = Glyceraldehyde 3-P + Glycerone-P + ADP: 364.7 ± 19.3 mmol/g-DNA/2 days
  Flux RXN 4 Glycolysis: Glycerone-P = Glyceraldehyde 3-P: 342.7 ± 18.4 mmol/g-DNA/2 days
  Flux RXN 5 Glycolysis: Glyceraldehyde 3-P + NAD+ + ADP + Pi = P-Enolpyruvate + ATP + H2O: 709.8 ± 35.8 mmol/g-DNA/2 days
  Flux RXN 6 Glycolysis: P-Enolpyruvate + ADP + H+ = Pyruvate + ATP: 784.6 ± 35.5 mmol/g-DNA/2 days
  Flux RXN 7 Glycolysis: Pyruvate + NADH + H+ = Lactate + NAD+: 410.4 ± 19.1 mmol/g-DNA/2 days
  Flux RXN 8 Pentose phosphate pathway: Glucose 6-P + 2 NADP+ + H2O = Ribulose 5-P + CO2 + 2 NADPH + 2 H+: 7.1 ± 7.8 mmol/g-DNA/2 days
  Flux RXN 9 Pentose phosphate pathway: 3 Ribulose 5-P = 2 Fructose 6-P + Glyceraldehyde 3-P: 2.4 ± 2.6 mmol/g-DNA/2 days
  Flux RXN 10 TCA cycle (mitochondria) (PDC): 312.7 ± 48.2 mmol/g-DNA/2 days
  Flux RXN 11 TCA cycle (mitochondria) (PC): 141.4 ± 13.2 mmol/g-DNA/2 days
  Flux RXN 12 TCA cycle (mitochondria): 200.9 ± 54.1 mmol/g-DNA/2 days
  Flux RXN 13 TCA cycle (mitochondria): 237.8 ± 52.0 mmol/g-DNA/2 days
  Flux RXN 14 TCA cycle (mitochondria): 251.0 ± 52.6 mmol/g-DNA/2 days
  Flux RXN 15 TCA cycle (mitochondria): 251.2 ± 52.7 mmol/g-DNA/2 days
  Flux RXN 16 TCA cycle (mitochondria): 171.3 ± 45.2 mmol/g-DNA/2 days
  Flux RXN 17 TCA cycle: Citrate + CoA + ATP = Acetyl-CoA + Oxaloacetate + ADP + Pi: 74.9 ± 9.0 mmol/g-DNA/2 days
  Flux RXN 18 TCA cycle: Oxaloacetate + NADH + H+ = Malate + NAD+: 0.0 ± 0.0 mmol/g-DNA/2 days
  Flux RXN 19 TCA cycle: Malate + NADP+ = Pyruvate + CO2 + NADPH: 79.9 ± 9.7 mmol/g-DNA/2 days
  Flux RXN 20 TCA cycle: Citrate + NADP+ = 2-Oxoglutarate + CO2 + NADPH + H+: 36.9 ± 7.3 mmol/g-DNA/2 days
  Flux RXN 21 TCA cycle: Oxaloacetate + ATP = P-Enolpyruvate + CO2 + ADP: 74.8 ± 9.0 mmol/g-DNA/2 days
  Flux RXN 22 Oxidative phosphorylation (NADH + 0.5 O2): 527.6 ± 214.3 mmol/g-DNA/2 days
  Flux RXN 23 Oxidative phosphorylation (FADH2 + 0.5 O2): 272.8 ± 53.3 mmol/g-DNA/2 days
  Flux RXN 24 Palmitate biosynthesis: 9.4 ± 1.1 mmol/g-DNA/2 days
  Flux RXN 25 Tripalmitoylglycerol biosynthesis: Glycerone-P + 3 Palmitate to Tripalmitoylglycerol: 22.0 ± 1.3 mmol/g-DNA/2 days
  Flux RXN 26 Tripalmitoylglycerol + 3 H2O = Glycerol + 3 Palmitate: 19.2 ± 1.4 mmol/g-DNA/2 days
  Flux RXN 27 Tripalmitoylglycerol accumulation: 2.8 ± 0.4 mmol/g-DNA/2 days
  Flux RXN 28 Metabolism of ketone bodies: 8.4 ± 0.3 mmol/g-DNA/2 days
  Flux RXN 29 Metabolism of ketone bodies: 0.0 ± 0.0 mmol/g-DNA/2 days
  Flux RXN 30 Metabolism of ketone bodies (to 3-Hydroxybutyrate): 17.0 ± 0.6 mmol/g-DNA/2 days
  Flux RXN 31 Amino acid metabolism: Pyruvate + NH4+ + NADPH = Alanine: 0.0 ± 0.0 mmol/g-DNA/2 days
  Flux RXN 32 Amino acid metabolism: Aspartate + NH4+ = Asparagine: 2.3 ± 0.1 mmol/g-DNA/2 days
  Flux RXN 33 Amino acid metabolism: Aspartate = Oxaloacetate + NH4+ + NADH: 0.0 ± 0.0 mmol/g-DNA/2 days
  Flux RXN 34 Amino acid metabolism: Cysteine = Pyruvate + NH4+ + NADH: 0.0 ± 0.0 mmol/g-DNA/2 days
  Flux RXN 35 Amino acid metabolism: Glutamate = 2-Oxoglutarate + NH4+ + NADH: 0.0 ± 0.0 mmol/g-DNA/2 days
  Flux RXN 36 Amino acid metabolism: Glutamate + NH4+ + ATP = Glutamine: 5.3 ± 0.4 mmol/g-DNA/2 days
  Flux RXN 37 Amino acid metabolism: Serine + THF = Glycine: 5.8 ± 0.2 mmol/g-DNA/2 days
  Flux RXN 38 Amino acid metabolism: Histidine + THF = Glutamate + NH4+: 2.7 ± 0.2 mmol/g-DNA/2 days
  Flux RXN 39 Amino acid metabolism: Isoleucine + 2 CoA: 8.1 ± 0.3 mmol/g-DNA/2 days
  Flux RXN 40 Amino acid metabolism: Leucine + CoA + CO2 + ATP: 8.6 ± 0.3 mmol/g-DNA/2 days
  Flux RXN 41 Amino acid metabolism: Lysine = 2-Oxoadipate + 2 NH4+ + 3 NADH: 0.0 ± 0.0 mmol/g-DNA/2 days
  Flux RXN 42 Amino acid metabolism: 2-Oxoadipate + CoA: 0.0 ± 0.0 mmol/g-DNA/2 days
  Flux RXN 43 Amino acid metabolism: Methionine + Serine + ATP + CoA + THF: 0.0 ± 0.0 mmol/g-DNA/2 days
  Flux RXN 44 Amino acid metabolism: Phenylalanine + O2 + NADH = Tyrosine: 0.0 ± 0.0 mmol/g-DNA/2 days
  Flux RXN 45 Amino acid metabolism: Glutamate + ATP + 2 NADPH = Proline: 0.0 ± 0.0 mmol/g-DNA/2 days
  Flux RXN 46 Amino acid metabolism: Serine = Pyruvate + NH4+: 0.0 ± 0.0 mmol/g-DNA/2 days
  Flux RXN 47 Amino acid metabolism: Threonine + CoA to Glycine: 0.1 ± 0.1 mmol/g-DNA/2 days
  Flux RXN 48 Amino acid metabolism: Tryptophan + 3 O2 + NADPH = 2-Oxoadipate + Alanine + CO2 + NH4+: 0.0 ± 0.0 mmol/g-DNA/2 days
  Flux RXN 49 Amino acid metabolism: Tyrosine + 2 O2: 0.2 ± 0.1 mmol/g-DNA/2 days
  Flux RXN 50 Amino acid metabolism: Valine + CoA: 5.1 ± 0.4 mmol/g-DNA/2 days
  Flux RXN 51 Plasma exchange: Palmitate: 1.0 ± 0.1 mmol/g-DNA/2 days
  Flux RXN 52 Plasma exchange: Acetoacetate: 0.2 ± 0.2 mmol/g-DNA/2 days
  Flux RXN 53 Plasma exchange: Alanine: 0.0 ± 0.0 mmol/g-DNA/2 days
  Flux RXN 54 Plasma exchange: Aspartate: 2.3 ± 0.1 mmol/g-DNA/2 days
  Flux RXN 55 Plasma exchange: Cysteine: 0.0 ± 0.0 mmol/g-DNA/2 days
  Flux RXN 56 Plasma exchange: Glutamate: 2.6 ± 0.2 mmol/g-DNA/2 days
  Flux RXN 57 Plasma exchange: Glycine: 5.9 ± 0.2 mmol/g-DNA/2 days
  Flux RXN 58 Plasma exchange: Serine: 5.8 ± 0.2 mmol/g-DNA/2 days
  Flux RXN 59 Plasma exchange: Tyrosine: 0.1 ± 0.1 mmol/g-DNA/2 days
  Flux RXN 60 Plasma exchange: O2 (calculated oxygen uptake rate): 400.5 ± 134.0 mmol/g-DNA/2 days
  Flux RXN 61 Plasma exchange: CO2: 805.5 ± 145.9 mmol/g-DNA/2 days
  Flux RXN 62 Plasma exchange: NH4+: 17.0 ± 1.0 mmol/g-DNA/2 days
  Flux RXN 63 Mitochondrial exchange: Pyruvate: 454.0 ± 54.4 mmol/g-DNA/2 days
  Flux RXN 64 Mitochondrial exchange: Malate in, Citrate out: 111.7 ± 15.8 mmol/g-DNA/2 days
